The subject of one assay is iC9/CAR19/IL15+ NK cells. The assay is described as follows: Inducible caspase-9 suicide gene test, annexin-V-7AAD staining. Type of assay: cell-based, human. The conditions noted are these: after 4 hours. An excerpt: (C) CAR-NK cells home to sites of disease, such as the spleen, bone marrow, and liver, in a Raji engrafted mouse at Day 16 post-infusion. (D) CAR-NK cells persist in Raji engrafted mice at Day 70 post infusion. (E) CAR-transduced CB-NK cells show an anti-tumor effect in vivo in Raji-FFLuc mice from Day 0 to Day 14. (F) CAR-transduced CB-NK cells show an anti-tumor effect in vivo in Raji-FFLuc mice from Day 21 to Day 35. […] (H) Survival curve with different NK cell treatments. (I) CAR.19.IL15-iCasp9 transduced CB-NK cells are eliminated after activation of the suicide gene by exposure to the small molecule AP1903 after 4 hours.
Because of concerns over autonomous, uncontrolled NK-cell growth due to autocrine production of IL-15, a suicide gene based on the inducible caspase-9 (IC9) gene was incorporated into the construct. To test the inducible caspase-9 suicide gene that was incorporated into the retroviral vector, 10 nM of CID AP20187 was added to cultures of iC9/CAR19/IL15+ NK cells. The AP20187 induced apoptosis/necrosis of transgenic cells within 4 hours as assessed by annexin-V-7AAD staining (FIG. 2I).

Assay [1] has as its system primary CD19+ tumor cells. The assay is described as follows: Cytotoxicity (percent lysis) against tumor cells. The following applies: combination with CAR-transduced NK cells. Type of assay: cell-based, human. From the text:
FIGS. 1A-1I: (A) CB NK cells were stably transduced with SFG.iCASP9.2A.CAR.CD19-28z.2A.[…]. Cell analysis for CD56 and CAR are shown from Day 10 to Day 44. (B) Histograms show NK receptor expression on ex vivo-expanded cord blood versus peripheral blood NK cells. NK receptors include KIR2DL2/DL3, KIR2DL1, NGK2A, NKP30, NKP44, and NKP46. (C) aAPC-expanded NK cells maintain an Eomes^hi and T-bet^hi phenotype. […] (G) NK cells co-expressing CAR.19-IL-15-iCasp9 form functional synapses with CD19^+ CLL cells. Cells are stained for Perforin, Phalloidin, and CAR and imaged by confocal microscopy. (H) CAR.19-IL-15-iCasp9 transduced CB-NK cells are more efficient at killing primary CD19^+ tumor cells. Percent lysis of tumor cells is shown at varying effector:target ratios of K562, Raji, and CLL cells. (I) The activity of cord blood-derived NK cells against primary CLL cells is enhanced with lenalidomide (Revlimid).
The immunological synapse in immune cells is a discrete structural entity that forms after the ligation of a specific activation receptor and enables the cell to progress through a series of biological steps that allow it to destroy cancer cells through the elaboration of the contents of NK cells lytic granules. To determine if the CAR-transduced NK cells formed immunological synapses with CD19^+ targets, the cells were stained with antiperforin, Phalloidin-F-actin and anti-CD19-CAR.

In the case of `CC[C@H](C(=O)N1CCCC[C@H]1C(=O)O[C@H](CCc1ccc(OC)c(OC)c1)c1cccc(OCC(=O)NCCNC(=O)COc2cccc([C@@H](CCc3ccc(OC)c(OC)c3)OC(=O)[C@@H]3CCCCN3C(=O)[C@@H](CC)c3cc(OC)c(OC)c(OC)c3)c2)c1)c1cc(OC)c(OC)c(OC)c1` [AP1903], in the assay with iC9/CAR19/IL15+ NK cells, the “elimination of CAR.19.IL15-iCasp9 transduced CB-NK cells after activation of the suicide gene” value is on record as “eliminated”. For `Nc1cccc2c1CN(C1CCC(=O)NC1=O)C2=O` (centres unmarked) [lenalidomide], in assay [1], the “activity of CAR-transduced NK cells against patient-derived CLL cells on addition of lenalidomide” value was “enhanced synergistically”.
